# Key:
# Pneumocystis carinii [1] = assay: The compound was tested in vivo against Pneumocystis carinii pneumonia (PCP) in the immunosuppressed rat model at iv dose of 22.0 (umol/kg/day); format: functional
# Rattus norvegicus [2] = assay: Toxicity is evaluated according to a five-level scale ranging from 0 to 5+ at the specified oral dose of 33.0 (umol/kg/day); format: organism-based; conditions: in vivo
# Rattus norvegicus [3] = assay: Toxicity is evaluated according to a five-level scale ranging from 0 to 5+ at the specified iv dose of 22.0 (umol/kg/day); format: organism-based; conditions: in vivo
# Pneumocystis carinii [4] = assay: The compound was tested in vivo against Pneumocystis carinii pneumonia (PCP) in the immunosuppressed rat model at oral dose of 33.0(umol/kg/day); format: functional
# Pneumocystis carinii [5] = assay: The compound was tested in vivo against Pneumocystis carinii pneumonia (PCP) in the immunosuppressed rat model at iv dose of 11.3(umol/kg/day); format: functional
# Rattus norvegicus [6] = assay: Toxicity is evaluated according to a five-level scale ranging from 0 to 5+ at the specified iv dose of 11.0 (umol/kg/day); format: organism-based; conditions: in vivo
# Pneumocystis carinii [7] = assay: The compound was tested in vivo against Pneumocystis carinii pneumonia (PCP) in the immunosuppressed rat model at iv dose of 34.7 (umol/kg/day); format: functional
# Rattus norvegicus [8] = assay: Toxicity is evaluated according to a five-level scale ranging from 0 to 5+ at the specified iv dose of 34.7 (umol/kg/day); format: organism-based; conditions: in vivo
# Pneumocystis carinii [9] = assay: The compound was tested in vivo against Pneumocystis carinii pneumonia (PCP) in the immunosuppressed rat model at iv dose of 11.0 (umol/kg/day); format: functional
# Rattus norvegicus [10] = assay: Toxicity is evaluated according to a five-level scale ranging from 0 to 5+ at the specified oral dose of 39.8 (umol/kg/day); format: organism-based; conditions: in vivo
# Rattus norvegicus [11] = assay: Toxicity is evaluated according to a five-level scale ranging from 0 to 5+ at the specified iv dose of 13.3 (umol/kg/day); format: organism-based; conditions: in vivo
# Pneumocystis carinii [12] = assay: The compound was tested in vivo against Pneumocystis carinii pneumonia (PCP) in the immunosuppressed rat model at iv dose of 13.3 (umol/kg/day); format: functional
# Pneumocystis carinii [13] = assay: The compound was tested in vivo against Pneumocystis carinii pneumonia (PCP) in the immunosuppressed rat model at oral dose of 39.8(umol/kg/day); format: functional
Compound,Control (Pneumocystis carinii [1]) [%],Toxicity (Rattus norvegicus [2]),Toxicity (Rattus norvegicus [3]),Control (Pneumocystis carinii [4]) [%],also measured
CCSC(=O)NC(=N)c1ccc(-c2ccc(-c3ccc(C(=N)NC(=O)SCC)cc3)o2)cc1,83.01,0,0,19.52,–
Cc1oc(=O)oc1COC(=O)NC(=N)c1ccc(-c2ccc(-c3ccc(C(=N)NC(=O)OCc4oc(=O)oc4C)cc3)o2)cc1,0.02,0,0,18.73,–
COc1ccc(OC(=O)NC(=N)c2ccc(-c3ccc(-c4ccc(C(=N)NC(=O)Oc5ccc(OC)cc5)cc4)o3)cc2)cc1,0.02,0,0,2.1,–
N=C(NC(=O)OCc1ccccc1)c1ccc(-c2ccc(-c3ccc(C(=N)NC(=O)OCc4ccccc4)cc3)o2)cc1,–,0,–,18.09,Control (Pneumocystis carinii [5]): 0.03%; Toxicity (Rattus norvegicus [6]): 0
N=C(NC(=O)Oc1ccc(F)cc1)c1ccc(-c2ccc(-c3ccc(C(=N)NC(=O)Oc4ccc(F)cc4)cc3)o2)cc1,0.02,0,0,2.21,–
COC(=O)NC(=N)c1ccc(-c2ccc(-c3ccc(C(=N)NC(=O)OC)cc3)o2)cc1,6.91,0,0,49.68,–
N=C(NC(=O)Oc1ccccc1)c1ccc(-c2ccc(-c3ccc(C(=N)NC(=O)Oc4ccccc4)cc3)o2)cc1,3.61,0,0,5.7,–
CCOC(=O)ONC(=N)c1ccc(-c2ccc(-c3ccc(C(=N)NOC(=O)OCC)cc3)o2)cc1,–,0,–,96.9,Control (Pneumocystis carinii [7]): 1.66%; Toxicity (Rattus norvegicus [8]): 0
N/C(=N\C(=O)OCC(Cl)(Cl)Cl)c1ccc(-c2ccc(-c3ccc(/C(N)=N\C(=O)OCC(Cl)(Cl)Cl)cc3)o2)cc1,1.85,0,0,8.59,–
CC(=O)OC(C)OC(=O)NC(=N)c1ccc(-c2ccc(-c3ccc(C(=N)NC(=O)OC(C)OC(C)=O)cc3)o2)cc1 (centres undefined),–,0,–,57.16,Control (Pneumocystis carinii [9]): 1.21%
N=C(N)c1ccc(-c2ccc(-c3ccc(C(=N)N)cc3)o2)cc1 [FURAMIDINE],–,–,–,–,Toxicity (Rattus norvegicus [10]): 0; Toxicity (Rattus norvegicus [11]): 0; Control (Pneumocystis carinii [12]): 0.83%; Control (Pneumocystis carinii [13]): 44.52%
N=C(N)c1ccc(OCCCCCOc2ccc(C(=N)N)cc2)cc1 [PENTAMIDINE],3.06,–,–,–,–

# From ChEMBL document CHEMBL1132181, “Prodrugs for amidines: synthesis and anti-Pneumocystis carinii activity of carbamates of 2,5-bis(4-amidinophenyl)furan” (J Med Chem, 1999)
